Measurements from US20060223117A1, “Novel splice variants of human epithelial sodium channel genes expressed in human taste tissue and uses thereof” (SENOMYX, INC., priority 2005, published 2006).
“Also recorded” adds a separate entry of the source.

How the values were obtained:
perceived salt intensity = experiment: Senomyx human taste experiments, perceived salt intensity; type: in vivo
[1] = system: intensity of sodium chloride; details: humans; concentrations that specifically inhibit ENaC function; cited from earlier work

Row | SMILES | effect on perceived salt intensity (perceived salt intensity; tested at levels 3000-fold (printed: for benzamil) above IC50 values in oocytes) | effect on perceived salt intensity (perceived salt intensity; tested at levels 3000-fold (printed: for benzamil) above IC50 values in oocytes, listed as phenomil) | reduction of the intensity of sodium chloride [1] | effect on perceived salt intensity (perceived salt intensity; tested at levels 300-fold above IC50 values in oocytes)
1 | NC(=Nc1ccccc1)NC(=O)c1nc(Cl)c(N)nc1N [phenamil] | did not demonstrate a significant effect | did not exhibit a significant effect |  | 
2 | N=C(N)NC(=O)c1nc(Cl)c(N)nc1N [amiloride] |  |  | 15-20% | did not exhibit a significant effect; also recorded: did not demonstrate a significant effect
